Earlier results as cited in patent US20210065841A1, “METHOD FOR DETERMINING ANDROGEN AND ANTI-ANDROGEN EFFECTS ON SUBSTANCES” (priority 2018, published 2021).

Biological target: T1, androgen receptor (Homo sapiens, UniProt P10275)
T1 sequence (P10275 1-920): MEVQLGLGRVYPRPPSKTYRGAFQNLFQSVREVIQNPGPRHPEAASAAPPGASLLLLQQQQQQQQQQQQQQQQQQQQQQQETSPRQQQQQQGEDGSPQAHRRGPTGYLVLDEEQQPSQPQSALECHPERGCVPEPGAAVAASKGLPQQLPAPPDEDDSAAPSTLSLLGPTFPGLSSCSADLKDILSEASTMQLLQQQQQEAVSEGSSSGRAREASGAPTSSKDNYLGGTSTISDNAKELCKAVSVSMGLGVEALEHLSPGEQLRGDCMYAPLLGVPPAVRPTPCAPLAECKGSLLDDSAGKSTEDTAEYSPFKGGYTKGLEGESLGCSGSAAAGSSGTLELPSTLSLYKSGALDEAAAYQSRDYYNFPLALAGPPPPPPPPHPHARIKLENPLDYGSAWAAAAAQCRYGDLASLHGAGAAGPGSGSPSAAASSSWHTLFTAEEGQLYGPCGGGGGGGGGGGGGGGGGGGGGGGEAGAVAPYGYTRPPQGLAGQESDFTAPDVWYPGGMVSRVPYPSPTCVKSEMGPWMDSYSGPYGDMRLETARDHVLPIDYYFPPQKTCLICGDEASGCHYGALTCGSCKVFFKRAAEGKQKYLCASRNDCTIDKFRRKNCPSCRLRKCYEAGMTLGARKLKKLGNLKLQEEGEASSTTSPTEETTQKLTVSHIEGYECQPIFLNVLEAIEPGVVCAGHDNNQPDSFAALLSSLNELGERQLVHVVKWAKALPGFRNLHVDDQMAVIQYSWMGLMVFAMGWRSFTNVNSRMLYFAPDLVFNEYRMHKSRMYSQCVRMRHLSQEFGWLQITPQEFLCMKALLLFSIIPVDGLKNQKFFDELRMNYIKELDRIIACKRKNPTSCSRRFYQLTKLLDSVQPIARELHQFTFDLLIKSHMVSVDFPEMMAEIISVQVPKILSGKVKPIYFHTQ
Conditions: previous reports

| SMILES | androgen receptor antagonistic properties |
| --- | --- |
| CCCCC(CC)COC(=O)c1cc(Br)c(Br)c(Br)c1Br (centres unmarked) [TBB] | androgen receptor antagonistic properites |
| BrC1CCC(Br)C(Br)CCC1Br (centres unmarked) [TBCO] | androgen receptor antagonistic properites |
